In brackets after ≈: the same amount, converted by molar mass.
How the values were obtained:
Format in all cases: cell-based, human
SW948CPTL cells = experiment: Cell proliferation assay, cross-resistance of SW948CPTL; details: for IC50: Homo sapiens, read-out: mean IC50 dose, SW948CPTL; for resistance of SW948CPTL cells (in words): compared to SW948; for fold change, SW948CPTL: fold change of IC50 vs SW948 (in brackets); for mean IC50 dose, SW948CPTL: SW948CPTL cells, without CPT-11 for >28 days, 24 h drug exposure, counted day 4, mean ± SD
Experimental: (§1) Determination of cross-resistance was determined by cell proliferation assay. SW948, SW948CPTH or SW948CPTL cells were plated in 24-well tissue culture plates and allowed to grow for 24 h at which time the drugs were added at various doses ranging from 0-80 μg/ml. Then 24 h later, the culture medium was removed, and the cells were washed once with PBS followed by the addition of drug-free culture medium. Cells were counted on day 4 using a cell counter (Beckman Coulter, Fullerton, Calif.). The data were analyzed with Microsoft Excel (Microsoft Corp., Redmond, Wash.) using an exponential regression model to determine the IC50 dose.

SW948CPTH cells = experiment: Cell proliferation assay, cross-resistance of SW948CPTH; details: for IC50: Homo sapiens, read-out: mean IC50 dose, SW948CPTH; for cross-resistance of SW948CPTH cells (in words): compared to SW948; for mean IC50 dose, SW948CPTH: SW948CPTH cells, without CPT-11 for >22 days, 24 h drug exposure, counted day 4, mean ± SD; for fold change, SW948CPTH: fold change of IC50 vs SW948 (in brackets)
Experimental: as §1

SW948 cells = experiment: Cell proliferation assay, sensitivity of SW948 to various drugs; details: SW948 parental cells, 24 h drug exposure, cells counted day 4, mean ± SD of 1-4 assays; for IC50: Homo sapiens, read-out: mean IC50 dose, SW948
Experimental: as §1

| IC50 (SW948CPTL cells) [µg/mL] | IC50 (SW948CPTH cells) [µg/mL] | SMILES | resistance of SW948CPTL cells (in words) (SW948CPTL cells) | cross-resistance of SW948CPTH cells (in words) (SW948CPTH cells) | IC50 (SW948 cells) [µg/mL] | mean IC50 dose, SW948CPTH (SW948CPTH cells) [µg/mL] | fold change, SW948CPTH (SW948CPTH cells) | mean IC50 dose, SW948 (SW948 cells) [µg/mL] | fold change, SW948CPTL (SW948CPTL cells) | mean IC50 dose, SW948CPTL (SW948CPTL cells) [µg/mL] |
| --- | --- | --- | --- | --- | --- | --- | --- | --- | --- | --- |
| 0.75 ± 0.02 (≈ 5.77 µM) | 0.54 ± 0.2 (≈ 4.15 µM) | O=c1[nH]cc(F)c(=O)[nH]1 [5-FU, 5-fluorouracil] | no resistance | No resistant | 0.61 ± 0.1 (≈ 4.69 µM) | – | – | – | – | – |
| – | – | CC[C@@]1(O)C(=O)OCc2c1cc1n(c2=O)Cc2cc3cc(O)ccc3nc2-1 [10-OH-CPT] | – | cross-resistant | – | 1.7 ± 0.3 | 7 | 0.25 ± 0.16 | – | – |
| – | – | CCc1c2c(nc3ccc(OC(=O)N4CCC(N5CCCCC5)CC4)cc13)-c1cc3c(c(=O)n1C2)COC(=O)[C@]3(O)CC [CPT-11] | showed resistance | cross-resistant | – | 38 ± 6.9 | – | 3.0 ± 0.3 | – | – |
| – | – | N.N.[Cl][Pt][Cl] [Cisplatin, cisplatin] | showed resistance | No resistant | – | 1.5 ± 0.15 | – | 1.3 ± 0.34 | 1.7 | 2.2 ± 1.3 |
| – | 0.048 ± 0.008 (≈ 0.0883 µM) | COc1cccc2c1C(=O)c1c(O)c3c(c(O)c1C2=O)C[C@@](O)(C(=O)CO)C[C@@H]3O[C@H]1C[C@H](N)[C@H](O)[C@H](C)O1 [Doxorubicin, doxorubicin] | – | No resistant | 0.037 ± 0.008 (≈ 0.0681 µM) | – | – | – | – | – |
| 1.6 ± 0.2 (≈ 2.72 µM) | 0.7 ± 0.2 (≈ 1.19 µM) | COc1cc([C@@H]2c3cc4c(cc3[C@@H](O[C@@H]3O[C@@H]5CO[C@@H](C)O[C@H]5[C@H](O)[C@H]3O)[C@H]3COC(=O)[C@H]23)OCO4)cc(OC)c1O [Etoposide, etoposide] | showed resistance | not cross-resistant | 0.8 ± 0.1 (≈ 1.36 µM) | – | – | – | 2 | – |
| 0.016 (≈ 0.0608 µM) | 0.008 ± 0.004 (≈ 0.0304 µM) | Nc1ccn([C@@H]2O[C@H](CO)[C@@H](O)C2(F)F)c(=O)n1 [Gemcitabine, gemcitabine] | showed resistance | No resistant | 0.009 ± 0.004 (≈ 0.0342 µM) | – | – | – | 1.8 | – |
| – | 0.84 ± 0.21 (≈ 3.47 µM) | CC1(C)CCC2=C(O1)c1ccccc1C(=O)C2=O [Lapachone] | – | not cross-resistant | 1.06 ± 0.16 (≈ 4.38 µM) | – | – | – | – | – |
| – | – | CCc1c2c(nc3ccc(O)cc13)-c1cc3c(c(=O)n1C2)COC(=O)[C@]3(O)CC [SN38] | showed resistance | cross-resistant | – | 1.5 ± 0.13 | 8 | 0.19 ± 0.01 | 9 | 1.7 ± 0.15 |

| SMILES | IC50 (SW948CPTL cells) [µg/mL] | IC50 (SW948CPTH cells) [µg/mL] | resistance of SW948CPTL cells (in words) (SW948CPTL cells) | cross-resistance of SW948CPTH cells (in words) (SW948CPTH cells) | IC50 (SW948 cells) [µg/mL] | mean IC50 dose, SW948CPTH (SW948CPTH cells) [µg/mL] | fold change, SW948CPTH (SW948CPTH cells) | mean IC50 dose, SW948 (SW948 cells) [µg/mL] | fold change, SW948CPTL (SW948CPTL cells) | mean IC50 dose, SW948CPTL (SW948CPTL cells) [µg/mL] |
| --- | --- | --- | --- | --- | --- | --- | --- | --- | --- | --- |
| CC[C@@]1(O)C(=O)OCc2c1cc1n(c2=O)Cc2cc3ccccc3nc2-1 [CPT, camptothecin] | 0.14 (≈ 0.402 µM) | 0.32 ± 0.02 (≈ 0.919 µM) | showed resistance | cross-resistant | 0.057 ± 0.02 (≈ 0.164 µM) | – | 6 | – | 2.4 | – |
